Results reported in paper PMC2866470, “Teratogenic Effects of Diatom Metabolites on Sea Urchin Paracentrotus lividus Embryos” (Marine Drugs, 2010).
Where two headings read alike, the source gives them in different places.

How the values were obtained:
[1] = test system: Sphaerechinus granularis embryos; conditions: cited from earlier work
[2] = test system: Paracentrotus lividus embryos; assay: Embryotoxicity test: inhibition of first cell cleavage in sea urchin embryos; type: in vivo; conditions: for Concentration at which arrest (100% blockage) of cell cleavage occurs: circa 90 min after fertilization, 20 °C
Experimental: (§1) Paracentrotus lividus (Lamarck) sea urchins were collected during the breeding season by SCUBA diving in the Gulf of Naples and transported in an insulated box to the laboratory, within 1 h after collection, and maintained in captivity in well-aerated water at 18 °C in an open circuit. Living organisms were injected with 0.2 mL of 0.2 M acetylcholine (SIGMA-Aldrich, Milan, Italy) through the peribuccal membrane to induce gamete ejection. Spawned eggs were allowed to settle and were washed three times with 0.22 micron filtered sea water (FSW); eggs were then diluted to a final concentration of 3000 eggs mL^−1. Concentrated sperm was collected ‘dry’, mixing samples from at least three different males and stocking undiluted at +4 °C. Sperm mix was diluted 10 μL in 10 mL SW just before insemination and an aliquot of circa 100 μL of this solution was added to 100 mL of egg suspension. At 2–4 min after sperm addition the eggs were checked for successful fertilization and excess sperm were removed by washing the eggs once with FSW.
(§2) PUAs and PUFAs were tested on sea urchin early development. […] All concentrations were tested on egg groups collected from three different females. Groups of eggs from the same animals were used as controls. To test the effect of the solvent, other groups of embryos were incubated in 10% methanol, which was the highest concentration of solvent used for incubation experiments. Embryos were kept at 20 °C in a controlled temperature chamber under 12:12 light:dark cycle.
Cleavage inhibition was assessed by counting at least 200 embryos for each well.
Statistical analysis and IC50 calculation were made by using the Prism software (GraphPad software inc. La Jolla, CA, USA).

[3] = test system: Paracentrotus lividus embryos; assay: Embryotoxicity test: percentage of hatched sea urchin larvae after 24 hours; type: in vivo; conditions: for Effect on the transition to swimming blastula / larval stage: in vivo; for Concentration of total inhibition of hatching viability (0% of hatched larvae) / Hatching viability: 24 hours; for Hatching viability: at concentrations of circa 3.0 μM
Experimental: as §1
as §2, with “cycle. […]” for “cycle.”

[4] = test system: Paracentrotus lividus embryos and pluteus larvae; assay: Teratogenic effect after 48 hours of incubation (abnormalities and mortality of larvae); type: in vivo
Experimental: PUAs were also tested for their teratogenic effect after long term incubations. After 48 hours of incubation with test compounds, the number of abnormalities and mortality were assessed according to Pagano et al.. Embryos at various stages were observed under a light microscope (Zeiss Axiovert 135TV). Pictures were taken using a Zeiss Axiocam connected directly to the microscope.

[5] = test system: Paracentrotus lividus embryos and pluteus larvae; assay: TUNEL fluorescence labeling of apoptosis in larvae after 48 hours of exposure; type: in vivo
Experimental: P. lividus embryos were incubated as described above in decadienal at concentrations ranging from 1.32 to 6.58 μM for 48 hours. Pluteus larvae were fixed in paraformaldehyde 4% (SIGMA-Aldrich, Milan, Italy) in sea water for 2 hours at room temperature. Fixed sea urchin embryos were washed several times in phosphate saline buffer 10 mM at pH 7.4 (PBS) to remove paraformaldehyde and then incubated for 1 h in a solution of 0.1% Triton X-100 and 0.1% sodium citrate, at 4 °C. Apoptosis was assessed using TdT-mediated dUTP nick end labeling (TUNEL) (Roche Diagnostics) according to manufacturer’s instructions. After washing in PBS containing 1% bovine albumin serum (BSA, Sigma-Aldrich), treated samples were incubated at 37 °C for 90 min in TUNEL solution in a humidified chamber, in the dark. Control embryos were fixed and stained as described above. To obtain TUNEL-positive control samples, embryos were incubated for 10 min in 50 mM Tris-HCl, pH 7.5, 10 mM MgCl2, 0.1% dithiothreitol, containing 250 μg mL^−1 DNase I (grade II from bovine pancreas; Boehringer GmbH, Mannheim, Germany) at room temperature. Negative controls were obtained by incubating embryos in label solution only, as recommended by the manufacturer. […] Pictures were taken using a Zeiss Axiocam connected directly to the microscope.

[6] = Decadienal stability in nutrient enriched sea water (f/2 medium), spectrophotometric; type: physicochemical
Experimental: Decadienal stock solution was prepared by diluting a known amount of the substance (determined by weight) in methanol. The methanolic solution was further diluted in autoclaved f/2 medium to achieve decadienal concentration ranging from 0.66 to 32.89 μM. A standard curve was generated by reporting the absorbance at 274 nm of decadienal as a function of its concentration (each determination was performed in triplicate).
To verify decadienal stability, solutions were prepared in triplicate at a starting concentration of 8.96 μM in 250 mL f/2 and incubated in a polystyrene culture flask closed with a screw cap. The UV spectrum and absorbance reading at 274 nm were assessed with time. Decadienal concentration was determined on the basis of a standard curve.

Ciona intestinalis = test system: Ciona intestinalis; set-up: method as in PMID 12874802; conditions: printed equivalent 1.32 μM; cited from earlier work
pelagic copepods = test system: pelagic copepods; set-up: method as in ref 28 = [28]; 28 Ianora A Romano G Carotenuto Y Esposito F Roncalli V Buttino I Miralto A Impact of the diatom oxylipin 15S-HEPE on the reproductive success of the copepod Temora stylifera Hydrobiologia 2010 submit; conditions: printed equivalent 6.58 μM; cited from earlier work
early P. lividus embryos = test system: early P. lividus embryos; set-up: method as in PMID 12939379; conditions: cited from earlier work
[7] = test system: Paracentrotus lividus embryos; set-up: method as in ref 18 = [18]; 18 Sellem F Pesando D Bodennec G El Abed A Girard JP Toxic effects of Gymnodinium cf. mikimotoi unsaturated fatty acids to gametes and embryos of the sea urchin Paracentrotus lividus Water Res 2000 34; conditions: P. lividus; cited from earlier work

O=C/C=C/C=C\CCCC(=O)O [9-oxo-nona-5Z,7E-dienoic acid, reference compound]
Activity on embryo cleavage ([1]; S. granularis embryos): not inhibitory

CCC=CCC=CCC=CCC=CCC=CCC=CCCC(=O)O [DHA, 4,7,10,13,16,19-docosahexaenoic acid]
Percentage of embryos that underwent first cleavage ([2]; at 304 μM, 90 min after fertilization): 34% | Effect on the transition to swimming blastula / larval stage [3]: interfered with the transition to the larval stage

CC/C=C\C/C=C\C/C=C\C/C=C\C/C=C\CCCC(=O)OC [EPA methyl-ester]
Activity on cleavage compared with EPA ([2]; in vivo): drastic reduction in the activity | Concentration of total inhibition of hatching viability (0% of hatched larvae) [3]: 158 µM

CCC=CCC=CCC=CCC=CCC=CCCCC(=O)O [EPA, 5,8,11,14,17-eicosapentaenoic acid]
Concentration at which arrest (100% blockage) of cell cleavage occurs ([2]; circa 120 eggs mL−1): 331 µM | Concentration of total inhibition of hatching viability (0% of hatched larvae) [3]: approximately 83 μM | Effect on the transition to swimming blastula / larval stage [3]: interfered with the transition to the larval stage

CCCCC/C=C/C=C/C=O [decadienal, 2-trans,4-trans-decadienal]
IC50 ([2]; 95% CI = 2.96 to 3.06 μM, circa 120 eggs mL−1): 3.01 µM | Concentration at which arrest (100% blockage) of cell cleavage occurs ([2]; circa 120 eggs mL−1): 5.26 µM | Concentration of total inhibition of hatching viability (0% of hatched larvae) [3]: 3.95 µM | Hatching viability [3]: < 50% | Abnormal plutei ([4]; 1.32 μM, 48 hours, ± SD): 11.08% ± 4.4 | Retarded larvae ([4]; 1.32 μM, 48 hours, ± SD): 11.64% ± 8.2 | Dead and pre-hatching embryos ([4]; 2.63 μM, 48 hours, ±22.42 SD): up to 29.4% | Dead embryos ([4]; 3.95 μM, 48 hours, ± SD): 53.7% (±24.7 SD) | Embryos not able to survive ([4]; 5.26 μM, 48 hours, ± SD): 85.1% (±24.7 SD) | Concentration at which embryos were unable to develop beyond the blastula stage ([4]; in vivo): ≥ 3.95 µM | Sub-lethal concentrations that increased abnormal plutei and delayed development ([4]; newly fertilized eggs, 48 hours): 1.32 to 5.26 µM | Number of embryos presenting a high degree of apoptosis (TUNEL) ([5]; 1.32 μM): more or less the same as in the control | Larvae TUNEL-positive in the entire body ([5]; 2.63 μM): approximately 80% | Larvae TUNEL-positive ([5]; 3.95 μM): almost all of the larvae were positively stained | Decadienal concentration in f/2 medium ([6]; after 24 hours (start of the gradual decrease), 8.96 μM starting concentration): 7.92 (±0.3 SD) μM | Change of initial concentration ([6]; after 24 hours, f/2 medium, 8.96 μM starting concentration): 11.70% | Decadienal concentration in f/2 medium ([6]; after seven days of incubation, natural light, 20 °C, closed vessel, 8.96 μM starting concentration): 4.63 (±0.017) μM | Time for which the aldehyde can be detected spectrophotometrically ([6]; f/2 medium): up to 14 days | Time without significant change of the initial concentration ([6]; f/2 medium, 8.96 μM starting concentration, closed flask, 20 °C): at least six | Minimum dose to inhibit 100% of embryo cleavage ([1]; S. granularis embryos): about 20 μM | IC50 ([1]; S. granularis embryos, read-out: IC50 of cleavage inhibition): 7.3 µM | IC50 ([1]; S. granularis, low egg density, read-out: IC50 of blockage of cell divisions in newly fertilized eggs): 1.3 µM | Sub-lethal concentration inducing abnormal tadpole larvae (Ciona intestinalis): 0.2 µg/mL | Concentration to induce malformations and apoptosis (pelagic copepods): 1000 ng/mL | Concentration inducing apoptosis relative to the dose required to induce 100% cleavage inhibition (early P. lividus embryos): five

CC/C=C/C=C/C=O [heptadienal, 2-trans,4-trans-heptadienal]
Concentration at which arrest (100% blockage) of cell cleavage occurs ([2]; circa 120 eggs mL−1): 27.27 µM | Concentration of total inhibition of hatching viability (0% of hatched larvae) [3]: 11.36 µM | Hatching viability [3]: > 90%

CCCCCC=CCC=CCCCCCCCC(=O)O [linoleic, 9,12-octadecadienoic acid]
Activity on cleavage ([2]; highest concentration tested 357 μM, 90 min after fertilization): no activity | Hatching (percentage of embryos) ([3]; at 357 μM): 60%

CCC=CCC=CCC=CCC=CCC=CCC(=O)O [octadecapentaenoic acid]
Concentration of total blockage of first cleavage [7]: ≥ 1 mM

CCC/C=C/C=C/C=O [octadienal, 2-trans,4-trans–octadienal]
Concentration at which arrest (100% blockage) of cell cleavage occurs ([2]; circa 120 eggs mL−1): 16.13 µM | Concentration of total inhibition of hatching viability (0% of hatched larvae) [3]: 8.08 µM | Hatching viability [3]: > 90%

C=CC/C=C/C=C/C=O [octatrienal, 2-trans,4-trans,7-octatrienal]
Concentration at which arrest (100% blockage) of cell cleavage occurs ([2]; circa 120 eggs mL−1): 11.47 µM

CCC=CCC=CCC=CCC=CCCCCC(=O)O [stearidonic acid, 6,9,12,15-octadecatetraenoic acid]
Concentration at which arrest (100% blockage) of cell cleavage occurs ([2]; circa 120 eggs mL−1): 181 µM | Effect on the transition to swimming blastula / larval stage [3]: interfered with the transition to the larval stage

CCCCCCCCCCCCC=O [tridecanal]
Effect on first cleavage ([2]; up to 25 μM, higher concentrations not tested due to solubility problems in sea water): did not interfere with first cleavage

CCCCCC=CCC=CCC=CCCCCC(=O)O [γ-linolenic, 6,9,12-octadecatrienoic acid]
Activity on cleavage ([2]; highest concentration tested 359 μM, 90 min after fertilization): no activity | Hatching (percentage of embryos) ([3]; at 360 μM): 50%
